Measured values as given in PMC6001238, “Iterative Chemical Engineering of Vancomycin Leads to Novel Vancomycin Analogs With a High in Vitro Therapeutic Index” (Frontiers in Microbiology, 2018).
In brackets after ≈: the same amount, converted by molar mass.

Columns and labels:
E. faecalis VRE 37 = assay: MIC, broth microdilution, vancomycin-resistant E. faecalis VRE 37 (VanA); type: cell-based, Enterococcus faecalis; details: for MIC: Enterococcus faecalis VRE 37 (vancomycin-resistant), read-out: MIC; for MIC-fold improvement vs. vancomycin: VRE 37, ratio of MIC of vancomycin and MIC of analogue
Outline: (§1)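 Susceptibility was scored by broth microdilution (CLSI). In one instance each vancomycin analog or control antibiotic was tested in the presence of vancomycin, 10 μM final, and ultrapure water plus non-inoculated broth were included as controls.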

S. aureus VISA/HIP5827 = assay: MIC, broth microdilution, vancomycin-intermediate S. aureus VISA HIP5827; type: cell-based, Staphylococcus aureus; details: for MIC: Staphylococcus aureus VISA/HIP5827, read-out: MIC; for MIC-fold improvement vs. vancomycin: VISA/HIP5827, ratio of MIC of vancomycin and MIC of analogue
Outline: as §1

[1] = tested on: L1210, CEM and HeLa cell lines; assay: Cytostatic activity, average or summary over L1210, CEM and HeLa; type: cell-based; details: average of L1210, CEM and HeLa; read-out: Toxicity (IC50) Average
Outline: (§2)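 Readout: Coulter cell number after drug exposure at 37°C. Durations differ by line (L1210 2 days; CEM 3 days; HeLa 4 days). Stock suspension 300,000–500,000 cells/mL, diluted by mixing with compound. Endpoint: IC50 vs negative control.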

MRSA KS1 = assay: MIC, broth microdilution, MRSA KS1; type: cell-based, Staphylococcus aureus; details: for MIC-fold improvement vs. vancomycin: MRSA KS1, ratio of MIC of vancomycin and MIC of analogue; for MIC: Staphylococcus aureus MRSA KS1, read-out: MIC
Outline: as §1

S. aureus VRSA = assay: MIC, broth microdilution, vancomycin-resistant S. aureus (VRSA); type: cell-based, Staphylococcus aureus; details: for MIC: Staphylococcus aureus VRSA, read-out: MIC; for MIC-fold improvement vs. vancomycin: VRSA, ratio of MIC of vancomycin and MIC of analogue
Outline: as §1

MRSA KS6 = assay: MIC, broth microdilution, MRSA KS6; type: cell-based, Staphylococcus aureus; details: for MIC-fold improvement vs. vancomycin: MRSA KS6, ratio of MIC of vancomycin and MIC of analogue; for MIC: Staphylococcus aureus MRSA KS6, read-out: MIC
Outline: as §1

[2] = tested on: S. aureus VSSA (ATCC 6538); assay: MIC, broth microdilution, vancomycin-sensitive S. aureus (VSSA/MSSA, ATCC 6538); type: cell-based, Staphylococcus aureus; details: for MIC: Staphylococcus aureus VSSA, read-out: MIC; for MIC-fold improvement vs. vancomycin: VSSA, ratio of MIC of vancomycin and MIC of analogue
Outline: as §1

E. faecalis VRE 53 = assay: MIC, broth microdilution, vancomycin-resistant E. faecalis VRE 53 (VanA); type: cell-based, Enterococcus faecalis; details: for MIC: Enterococcus faecalis VRE 53 (vancomycin-resistant), read-out: MIC; for MIC-fold improvement vs. vancomycin: VRE 53, ratio of MIC of vancomycin and MIC of analogue
Outline: as §1

E. faecalis VSE 1 = assay: MIC, broth microdilution, vancomycin-sensitive E. faecalis (VSE 1); type: cell-based, Enterococcus faecalis; details: for MIC: Enterococcus faecalis VSE 1 (vancomycin-sensitive), read-out: MIC; for MIC-fold improvement vs. vancomycin: VSE 1, ratio of MIC of vancomycin and MIC of analogue
Outline: as §1

[3] = tested on: Clostridium difficile AIU ribotype 027; assay: MIC, plate drop assay, C. difficile AIU ribotype 027; type: cell-based; details: for MIC-fold improvement vs. vancomycin: C. difficile AIU ribotype 027
Protocol: (§3) Bacterial lawns of both C. difficile strains were prepared by adding 0.5 mL overnight culture to 8 mL sloppy BHI agar (0.4% agar) supplemented with 1.5 g/L CaCl2⋅2H2O and 81.2 g/L MgCl2⋅6H2O, and pouring the mixture into Petri plates. A twofold dilution series of the selected vancomycin analogs, vancomycin ([…]) and daptomycin (25 μM) was spotted (10 μL) on the bacterial lawn. Spots were air-dried and the plates were incubated overnight at 37°C in an anaerobic cabinet. Ultrapure water was included as negative control. The assay was performed in triplicate. Inhibition was observed by cleared spots.

[4] = tested on: Murine leukemia (L1210) cells; assay: Cytostatic activity, L1210 cell proliferation; type: cell-based; details: mean ± SD of three experiments; highest concentration tested 250 µM; 2 days; read-out: Toxicity (IC50) L1210
Outline: as §2

[5] = tested on: Clostridium difficile ATJ ribotype 014/20; assay: MIC, plate drop assay, C. difficile ATJ ribotype 014/20; type: cell-based; details: for MIC-fold improvement vs. vancomycin: C. difficile ATJ ribotype 014/20
Protocol: as §3

E. faecalis VRE 29 = assay: MIC, broth microdilution, vancomycin-resistant E. faecalis VRE 29 (VanA); type: cell-based, Enterococcus faecalis; details: for MIC: Enterococcus faecalis VRE 29 (vancomycin-resistant), read-out: MIC; for MIC-fold improvement vs. vancomycin: VRE 29, ratio of MIC of vancomycin and MIC of analogue
Outline: as §1

MRSA KS89 = assay: MIC, broth microdilution, MRSA KS89; type: cell-based, Staphylococcus aureus; details: for MIC-fold improvement vs. vancomycin: MRSA KS8, ratio of MIC of vancomycin and MIC of analogue; for MIC: Staphylococcus aureus MRSA KS8, read-out: MIC
Outline: as §1

[6] = tested on: human cervix carcinoma (HeLa) cells; assay: Cytostatic activity, HeLa cell proliferation; type: cell-based; details: mean ± SD of three experiments; highest concentration tested 250 µM; 4 days; read-out: Toxicity (IC50) HeLa
Outline: as §2

MRSA KS2 = assay: MIC, broth microdilution, MRSA KS2; type: cell-based, Staphylococcus aureus; details: for MIC-fold improvement vs. vancomycin: MRSA KS2, ratio of MIC of vancomycin and MIC of analogue; for MIC: Staphylococcus aureus MRSA KS2, read-out: MIC
Outline: as §1

E. faecalis VRE 6 = assay: MIC, broth microdilution, vancomycin-resistant E. faecalis VRE 6 (VanA); type: cell-based, Enterococcus faecalis; details: for MIC: Enterococcus faecalis VRE 6 (vancomycin-resistant), read-out: MIC; for MIC-fold improvement vs. vancomycin: VRE 6, ratio of MIC of vancomycin and MIC of analogue
Outline: as §1

[7] = tested on: human T-lymphocyte (CEM) cells; assay: Cytostatic activity, CEM cell proliferation; type: cell-based; details: mean ± SD of three experiments; highest concentration tested 250 µM; 3 days; read-out: Toxicity (IC50) CEM
Outline: as §2

SMILES | MIC (E. faecalis VRE 37) | MIC (S. aureus VISA/HIP5827) | MIC-fold improvement vs. vancomycin (S. aureus VISA/HIP5827) | IC50 [1] | MIC (S. aureus VRSA) | MIC-fold improvement vs. vancomycin (S. aureus VRSA) | MIC [2] | MIC-fold improvement vs. vancomycin [2] | MIC (E. faecalis VRE 53) | MIC-fold improvement vs. vancomycin (E. faecalis VRE 53) | MIC (E. faecalis VSE 1) | MIC-fold improvement vs. vancomycin (E. faecalis VSE 1) | MIC-fold improvement vs. vancomycin [3] | IC50 [4] | MIC-fold improvement vs. vancomycin [5] | MIC (E. faecalis VRE 29) | IC50 [6] | MIC (E. faecalis VRE 6) | MIC-fold improvement vs. vancomycin (E. faecalis VRE 6) | IC50 [7] | other results
CN[C@H](CC(C)C)C(=O)N[C@H]1C(=O)N[C@@H](CC(N)=O)C(=O)N[C@H]2C(=O)N[C@H]3C(=O)N[C@H](C(=O)N[C@H](C(=O)NCC(=O)Nc4ccc(Cl)cc4Cl)c4cc(O)cc(O)c4-c4cc3ccc4O)[C@H](O)c3ccc(c(Cl)c3)Oc3cc2cc(c3O[C@@H]2O[C@H](CO)[C@@H](O)[C@H](O)[C@H]2O[C@H]2C[C@](C)(N)[C@H](O)[C@H](C)O2)Oc2ccc(cc2Cl)[C@H]1O [Vanc-14] | 6.25 µM (≈ 10.3 µg/mL) | 0.10 µM (≈ 0.165 µg/mL) | 64 | 138 µM | 3.13 µM (≈ 5.17 µg/mL) | 32 | 0.20 µM (≈ 0.33 µg/mL) | 4 | 3.13 µM (≈ 5.17 µg/mL) | 128 | 0.20 µM (≈ 0.33 µg/mL) | 8 | 29 | 153 ± 55 µM | 22 | 3.13 µM (≈ 5.17 µg/mL) | 148 ± 6 µM | 1.56 µM (≈ 2.57 µg/mL) | 128 | 114 ± 18 µM | MIC-fold improvement vs. vancomycin (E. faecalis VRE 37): 128; MIC-fold improvement vs. vancomycin (MRSA KS1): 2; MIC (MRSA KS1): 0.39 µM (≈ 0.644 µg/mL); MIC-fold improvement vs. vancomycin (MRSA KS6): 2; MIC (MRSA KS6): 0.39 µM (≈ 0.644 µg/mL); MIC-fold improvement vs. vancomycin (MRSA KS89): 4; MIC (MRSA KS89): 0.20 µM (≈ 0.33 µg/mL); MIC-fold improvement vs. vancomycin (MRSA KS2): 4; MIC (MRSA KS2): 0.20 µM (≈ 0.33 µg/mL)
CN[C@H](CC(C)C)C(=O)N[C@H]1C(=O)N[C@@H](CC(N)=O)C(=O)N[C@H]2C(=O)N[C@H]3C(=O)N[C@H](C(=O)N[C@H](C(=O)NCCNC(=O)/C=C/c4ccc(F)cc4)c4cc(O)cc(O)c4-c4cc3ccc4O)[C@H](O)c3ccc(c(Cl)c3)Oc3cc2cc(c3O[C@@H]2O[C@H](CO)[C@@H](O)[C@H](O)[C@H]2O[C@H]2C[C@](C)(N)[C@H](O)[C@H](C)O2)Oc2ccc(cc2Cl)[C@H]1O [Vanc-22] | 12.5 µM (≈ 20.5 µg/mL) | 1.56 µM (≈ 2.56 µg/mL) | 4 | 192 µM | 3.13 µM (≈ 5.13 µg/mL) | 32 | 0.39 µM (≈ 0.639 µg/mL) | 2 | 25 µM (≈ 41 µg/mL) | 16 | 0.39 µM (≈ 0.639 µg/mL) | 4 | 7 | > 250 µM | 5.6 | 12.5 µM (≈ 20.5 µg/mL) | 76 ± 11 µM | 1.56 µM (≈ 2.56 µg/mL) | 128 | > 250 µM | MIC-fold improvement vs. vancomycin (MRSA KS1): 2; MIC (MRSA KS1): 0.39 µM (≈ 0.639 µg/mL); MIC-fold improvement vs. vancomycin (MRSA KS6): 2; MIC (MRSA KS6): 0.39 µM (≈ 0.639 µg/mL); MIC ([3]; C. difficile AIU ribotype 027, plate drop assay): 6.25 µM (≈ 10.2 µg/mL); MIC ([5]; C. difficile ATJ ribotype 014/20, plate drop assay): 6.25 µM (≈ 10.2 µg/mL); MIC-fold improvement vs. vancomycin (E. faecalis VRE 29): 32; MIC-fold improvement vs. vancomycin (MRSA KS89): 2; MIC (MRSA KS89): 0.39 µM (≈ 0.639 µg/mL); MIC-fold improvement vs. vancomycin (MRSA KS2): 2; MIC (MRSA KS2): 0.39 µM (≈ 0.639 µg/mL)
CN[C@H](CC(C)C)C(=O)N[C@H]1C(=O)N[C@@H](CC(N)=O)C(=O)N[C@H]2C(=O)N[C@H]3C(=O)N[C@H](C(=O)N[C@H](C(=O)NCC(=O)Nc4ccc5cc6ccccc6cc5c4)c4cc(O)cc(O)c4-c4cc3ccc4O)[C@H](O)c3ccc(c(Cl)c3)Oc3cc2cc(c3O[C@@H]2O[C@H](CO)[C@@H](O)[C@H](O)[C@H]2O[C@H]2C[C@](C)(N)[C@H](O)[C@H](C)O2)Oc2ccc(cc2Cl)[C@H]1O [Vanc-59] | 1.56 µM (≈ 2.62 µg/mL) | 0.39 µM (≈ 0.656 µg/mL) | 16 | 96 µM | 0.20 µM (≈ 0.336 µg/mL) | 512 | 0.39 µM (≈ 0.656 µg/mL) | 2 | 12.5 µM (≈ 21 µg/mL) | 32 | 0.20 µM (≈ 0.336 µg/mL) | 8 | 29 | 177 ± 90 µM | 22 | 3.13 µM (≈ 5.26 µg/mL) | 88 ± 37 µM | 1.56 µM (≈ 2.62 µg/mL) | 128 | 23 ± 6 µM | MIC-fold improvement vs. vancomycin (E. faecalis VRE 37): 256; MIC-fold improvement vs. vancomycin (E. faecalis VRE 29): 128
